The values below are quoted from earlier work in patent US8314084B2, “Device and methods for sequential, regional delivery of multiple cytotoxic agents and directed assembly of wound repair tissues” (priority 2002, dated 2012).

For this data set the following is noted: given intravenously to dogs.

Structures are written as SMILES.

On to `N.N.[Cl][Pt][Cl]` [cisplatin, Cis-diamminedichloroplatinum H], for which the “usual maximum dose-limiting schedule” value is listed as 70 mg/m^2.
